Test system: 521955-158-R2-J5-PDC complex spheroid growth
Test: Anticancer human tumor 521955-158-R2-J5-PDC patient-derived pancreatic carcinoma cell line growth inhibition [AhR]
Details: for IC50: curve of first compound; for viability, T/C: stronger effect = lower value
In short: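 Agents were dosed in half-log steps down from roughly clinical Cmax, or from 10 microM where Cmax was unknown, alone and with AhR antagonists. Read-out: percent test/control growth of tumor spheroids containing HUVEC and MSC stromal cells.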

[1] = second compound 0.1 µM, first compound 0.0316 µM
[2] = second compound 0.1 µM, first compound 0.1 µM
[3] = second compound 0.1 µM, first compound 0.316 µM
[4] = second compound 0.1 µM, first compound 1 µM
[5] = second compound 0.1 µM, first compound 3.16 µM
[6] = second compound 0.1 µM, first compound 10 µM
[7] = second compound 0.316 µM, first compound 0.0316 µM
[8] = second compound 0.316 µM, first compound 0.1 µM
[9] = second compound 0.316 µM, first compound 0.316 µM
[10] = second compound 0.316 µM, first compound 1 µM
[11] = second compound 0.316 µM, first compound 3.16 µM
[12] = second compound 0.316 µM, first compound 10 µM
[13] = second compound 1 µM, first compound 0.0316 µM
[14] = second compound 1 µM, first compound 0.1 µM
[15] = second compound 1 µM, first compound 0.316 µM
[16] = second compound 1 µM, first compound 1 µM
[17] = second compound 1 µM, first compound 3.16 µM
[18] = second compound 1 µM, first compound 10 µM
[19] = second compound 3.16 µM, first compound 0.0316 µM
[20] = second compound 3.16 µM, first compound 0.1 µM
[21] = second compound 3.16 µM, first compound 0.316 µM
[22] = second compound 3.16 µM, first compound 1 µM
[23] = second compound 3.16 µM, first compound 3.16 µM
[24] = second compound 3.16 µM, first compound 10 µM
[25] = second compound 10 µM, first compound 0.0316 µM
[26] = second compound 10 µM, first compound 0.1 µM
[27] = second compound 10 µM, first compound 0.316 µM
[28] = second compound 10 µM, first compound 1 µM
[29] = second compound 10 µM, first compound 3.16 µM
[30] = second compound 10 µM, first compound 10 µM
[31] = second compound 0.1 µM, first compound 0.00949 µM
[32] = second compound 0.1 µM, first compound 0.03 µM
[33] = second compound 0.1 µM, first compound 0.0949 µM
[34] = second compound 0.1 µM, first compound 0.3 µM
[35] = second compound 0.1 µM, first compound 0.949 µM
[36] = second compound 0.1 µM, first compound 3 µM
[37] = second compound 0.316 µM, first compound 0.00949 µM
[38] = second compound 0.316 µM, first compound 0.03 µM
[39] = second compound 0.316 µM, first compound 0.0949 µM
[40] = second compound 0.316 µM, first compound 0.3 µM
[41] = second compound 0.316 µM, first compound 0.949 µM
[42] = second compound 0.316 µM, first compound 3 µM
[43] = second compound 1 µM, first compound 0.00949 µM
[44] = second compound 1 µM, first compound 0.03 µM
[45] = second compound 1 µM, first compound 0.0949 µM
[46] = second compound 1 µM, first compound 0.3 µM
[47] = second compound 1 µM, first compound 0.949 µM
[48] = second compound 1 µM, first compound 3 µM
[49] = second compound 3.16 µM, first compound 0.00949 µM
[50] = second compound 3.16 µM, first compound 0.03 µM
[51] = second compound 3.16 µM, first compound 0.0949 µM
[52] = second compound 3.16 µM, first compound 0.3 µM
[53] = second compound 3.16 µM, first compound 0.949 µM
[54] = second compound 3.16 µM, first compound 3 µM
[55] = second compound 10 µM, first compound 0.00949 µM
[56] = second compound 10 µM, first compound 0.03 µM
[57] = second compound 10 µM, first compound 0.0949 µM
[58] = second compound 10 µM, first compound 0.3 µM
[59] = second compound 10 µM, first compound 0.949 µM
[60] = second compound 10 µM, first compound 3 µM
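Wherever viability, T/C is given: spheroids mix tumor cells with HUVEC endothelium and human MSC stroma; luminescence taken as viability surrogate after a week of drug exposure.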

`CC1(C)CCC(CN2CCN(c3ccc(C(=O)NS(=O)(=O)c4ccc(NCC5CCOCC5)c([N+](=O)[O-])c4)c(Oc4cnc5[nH]ccc5c4)c3)CC2)=C(c2ccc(Cl)cc2)C1` + Cc1cncc(-c2nc(NCCc3c[nH]c4ccccc34)c3ncn(C(C)C)c3n2)c1 was tested, and the IC50 (second compound 0.1 µM) was > 10 µM, the IC50 (second compound 0.316 µM) was > 10 µM and the IC50 (second compound 1 µM) was > 10 µM. For the same compound, the IC50 (second compound 3.16 µM) was > 10 µM, the IC50 (second compound 10 µM) was > 10 µM and the viability, T/C [1] was 110%. The viability, T/C [2] was 111%, the viability, T/C [3] was 102% and the viability, T/C [4] was 104%. It also gave a viability, T/C [5] of 92.8%, a viability, T/C [6] of 74.7% and a viability, T/C [7] of 104%. The viability, T/C [8] was 109%, the viability, T/C [9] was 119% and the viability, T/C [10] was 105%. The viability, T/C [11] was 99.9%, the viability, T/C [12] was 79.5% and the viability, T/C [13] was 111%. It also gave a viability, T/C [14] of 124%, a viability, T/C [15] of 121% and a viability, T/C [16] of 111%. It also gave a viability, T/C [17] of 111%, a viability, T/C [18] of 76.3% and a viability, T/C [19] of 146%. The viability, T/C [20] was 123%, the viability, T/C [21] was 133% and the viability, T/C [22] was 120%. The viability, T/C [23] was 113%, the viability, T/C [24] was 94.9% and the viability, T/C [25] was 148%. The viability, T/C [26] was 147%, the viability, T/C [27] was 138% and the viability, T/C [28] was 156%. It also gave a viability, T/C [29] of 118% and a viability, T/C [30] of 102%.

With `CC1COCCN1c1cc(C2(S(C)(=N)=O)CC2)nc(-c2ccnc3[nH]ccc23)n1` (stereo not given) + Cc1cncc(-c2nc(NCCc3c[nH]c4ccccc34)c3ncn(C(C)C)c3n2)c1 the IC50 (second compound 0.1 µM) was 2.45 µM, the IC50 (second compound 0.316 µM) was 2.57 µM and the IC50 (second compound 1 µM) was 2.59 µM. It also gave an IC50 (second compound 3.16 µM) of 2.64 µM, an IC50 (second compound 10 µM) of 2.47 µM and a viability, T/C [1] of 115%. For the same compound, the viability, T/C [2] was 108%, the viability, T/C [3] was 114% and the viability, T/C [4] was 107%. For the same compound, the viability, T/C [5] was 33.8%, the viability, T/C [6] was 15.5% and the viability, T/C [7] was 125%. It also gave a viability, T/C [8] of 131%, a viability, T/C [9] of 105% and a viability, T/C [10] of 118%. For the same compound, the viability, T/C [11] was 35.1%, the viability, T/C [12] was 14.4% and the viability, T/C [13] was 140%. For the same compound, the viability, T/C [14] was 138%, the viability, T/C [15] was 131% and the viability, T/C [16] was 128%. The viability, T/C [17] was 33.5%, the viability, T/C [18] was 15.5% and the viability, T/C [19] was 139%. For the same compound, the viability, T/C [20] was 142%, the viability, T/C [21] was 154% and the viability, T/C [22] was 128%. For the same compound, the viability, T/C [23] was 35.7%, the viability, T/C [24] was 14.5% and the viability, T/C [25] was 130%. The viability, T/C [26] was 132%, the viability, T/C [27] was 139% and the viability, T/C [28] was 111%. The viability, T/C [29] was 33.9% and the viability, T/C [30] was 14.3%.

With `CCN(c1cc(-c2ccc(CN3CCOCC3)cc2)cc(C(=O)NCc2c(C)cc(C)[nH]c2=O)c1C)C1CCOCC1` + Cc1cncc(-c2nc(NCCc3c[nH]c4ccccc34)c3ncn(C(C)C)c3n2)c1 the IC50 (second compound 0.1 µM) was > 3 µM, the IC50 (second compound 0.316 µM) was > 3 µM and the IC50 (second compound 1 µM) was > 3 µM. The IC50 (second compound 3.16 µM) was > 3 µM, the IC50 (second compound 10 µM) was > 3 µM and the viability, T/C [31] was 118%. The viability, T/C [32] was 112%, the viability, T/C [33] was 124% and the viability, T/C [34] was 94.7%. It also gave a viability, T/C [35] of 117%, a viability, T/C [36] of 95.9% and a viability, T/C [37] of 99.5%. The viability, T/C [38] was 108%, the viability, T/C [39] was 106% and the viability, T/C [40] was 109%. It also gave a viability, T/C [41] of 110%, a viability, T/C [42] of 104% and a viability, T/C [43] of 125%. The viability, T/C [44] was 130%, the viability, T/C [45] was 122% and the viability, T/C [46] was 118%. It also gave a viability, T/C [47] of 99.6%, a viability, T/C [48] of 115% and a viability, T/C [49] of 158%. For the same compound, the viability, T/C [50] was 133%, the viability, T/C [51] was 130% and the viability, T/C [52] was 148%. It also gave a viability, T/C [53] of 110%, a viability, T/C [54] of 124% and a viability, T/C [55] of 112%. For the same compound, the viability, T/C [56] was 140%, the viability, T/C [57] was 111% and the viability, T/C [58] was 116%. It also gave a viability, T/C [59] of 84.2% and a viability, T/C [60] of 72.3%.

In the case of `Nc1ncn(C2CC(O)C(CO)S2)c(=O)n1` (stereo not given) + Cc1cncc(-c2nc(NCCc3c[nH]c4ccccc34)c3ncn(C(C)C)c3n2)c1, the IC50 (second compound 0.1 µM) is reported as > 0.3 µM, the IC50 (second compound 0.316 µM) is reported as > 0.3 µM and the IC50 (second compound 1 µM) is reported as > 0.3 µM. The IC50 (second compound 3.16 µM) was > 0.3 µM, the IC50 (second compound 10 µM) was > 0.3 µM and the viability, T/C (second compound 0.1 µM, first compound 0.000949 µM) was 115%. The viability, T/C (second compound 0.1 µM, first compound 0.003 µM) was 113%, the viability, T/C [31] was 123% and the viability, T/C [32] was 105%. It also gave a viability, T/C [33] of 93.3%, a viability, T/C [34] of 97.8% and a viability, T/C (second compound 0.316 µM, first compound 0.000949 µM) of 112%. The viability, T/C (second compound 0.316 µM, first compound 0.003 µM) was 112%, the viability, T/C [37] was 117% and the viability, T/C [38] was 115%. It also gave a viability, T/C [39] of 99.5%, a viability, T/C [40] of 93.7% and a viability, T/C (second compound 1 µM, first compound 0.000949 µM) of 126%. For the same compound, the viability, T/C (second compound 1 µM, first compound 0.003 µM) was 161%, the viability, T/C [43] was 158% and the viability, T/C [44] was 125%. It also gave a viability, T/C [45] of 125%, a viability, T/C [46] of 99% and a viability, T/C (second compound 3.16 µM, first compound 0.000949 µM) of 146%. For the same compound, the viability, T/C (second compound 3.16 µM, first compound 0.003 µM) was 129%, the viability, T/C [49] was 122% and the viability, T/C [50] was 123%. The viability, T/C [51] was 118%, the viability, T/C [52] was 128% and the viability, T/C (second compound 10 µM, first compound 0.000949 µM) was 145%. It also gave a viability, T/C (second compound 10 µM, first compound 0.003 µM) of 143%, a viability, T/C [55] of 105% and a viability, T/C [56] of 142%. The viability, T/C [57] was 114% and the viability, T/C [58] was 121%.

Compound `O=C(C=Cn1cnc(-c2cc(C(F)(F)F)cc(C(F)(F)F)c2)n1)NNc1cnccn1` + Cc1cncc(-c2nc(NCCc3c[nH]c4ccccc34)c3ncn(C(C)C)c3n2)c1 has an IC50 (second compound 0.1 µM) of 0.218 µM, an IC50 (second compound 0.316 µM) of 0.2 µM and an IC50 (second compound 1 µM) of 0.251 µM. For the same compound, the IC50 (second compound 3.16 µM) was 0.108 µM, the IC50 (second compound 10 µM) was < 0.00949 µM and the viability, T/C [31] was 65.6%. It also gave a viability, T/C [32] of 59.7%, a viability, T/C [33] of 53.2% and a viability, T/C [34] of 51.5%. For the same compound, the viability, T/C [35] was 37.1%, the viability, T/C [36] was 26.3% and the viability, T/C [37] was 76.1%. The viability, T/C [38] was 58.9%, the viability, T/C [39] was 57.6% and the viability, T/C [40] was 49.3%. It also gave a viability, T/C [41] of 39.6%, a viability, T/C [42] of 29.1% and a viability, T/C [43] of 74.5%. The viability, T/C [44] was 70%, the viability, T/C [45] was 54.5% and the viability, T/C [46] was 49.4%. The viability, T/C [47] was 38.9%, the viability, T/C [48] was 24.9% and the viability, T/C [49] was 78.7%. The viability, T/C [50] was 59.1%, the viability, T/C [51] was 53.2% and the viability, T/C [52] was 36.8%. It also gave a viability, T/C [53] of 40.9%, a viability, T/C [54] of 23.8% and a viability, T/C [55] of 38.3%. The viability, T/C [56] was 35.9%, the viability, T/C [57] was 28.2% and the viability, T/C [58] was 24.7%. For the same compound, the viability, T/C [59] was 19.7% and the viability, T/C [60] was 19.8%.
